Results reported in patent US11065355B2, “Device for monitoring efficacy of a decontamination process comprising a bacteria cell and method of using” (priority 2017, dated 2021).

Tested on: M. terrae cells
Test: PAA time course, cell suspension testing of M. terrae cell resistance to high-level disinfection
Type: cell-based, Mycobacterium terrae ATCC 15755
Settings: for Log Population / Log reduction / M. terrae Population: 850 ppm PAA, 30° C., 21 days growth culture
Experimental: Into a 50 ml polypropylene tube, pipet 0.85 ml of RAPICIDE Part A, 0.85 ml of RAPICIDE part B, and mix with 48.3 ml of distilled water. Vortex to mix thoroughly. Place tube in 30° C. water bath to equilibrate for at least 10 minutes before use.
PAA Time course: Exposure to PAA for various contact time points at 30° C. at the minimum effective concentration of RAPICIDE PAA (850 ppm). 10 μl of M. terrae cell samples at a target concentration of at least 1×10^8 cfu/mL were added to a 1.5 mL […] each sample in a 30° C. water bath. At the end of each contact time, samples were neutralized by adding 600 μL of 3% sodium thiosulfate with 0.05% Tween 80 for 15 mins at 30° C. Samples were centrifuged for 10 mins at 14000 rpm at 4 C. The supernatant was decanted off and samples were resuspended in 1 ml of BBL buffer. Serial dilutions (1:10) were made of each sample and 1 mL of each dilution was plated on Middlebrook 7H10 agar with Middlebrook OADC enrichment. Plates were incubated at 37° C. for 14-21 days.
The procedure of Example 1 was repeated using 21-days growth cells, with the M. terrae cells exposed to PAA instead of OPA.

SMILES: CC(=O)OO [PAA, peracetic acid]
- Log Population (exposure 1 seconds): 10.2
- Log reduction (exposure 1 seconds): 0.0
- M. terrae Population (exposure 1 seconds): 1.53E+10 CFU
- Log Population (exposure 15 seconds): 9.5
- Log reduction (exposure 15 seconds): 0.7
- M. terrae Population (exposure 15 seconds): 3.45E+09 CFU
- Log Population (exposure 30 seconds): 8.1
- Log reduction (exposure 30 seconds): 2.1
- M. terrae Population (exposure 30 seconds): 1.40E+08 CFU
- Log Population (exposure 60 seconds): 7.3
- Log reduction (exposure 60 seconds): 2.9
- M. terrae Population (exposure 60 seconds): 2.00E+07 CFU
- Log Population (exposure 90 seconds): 0
- Log reduction (exposure 90 seconds): 10.2
- M. terrae Population (exposure 90 seconds): 1.00E+00 CFU
- Log Population (exposure 120 seconds): 0
- Log reduction (exposure 120 seconds): 10.2
- M. terrae Population (exposure 120 seconds): 1.00E+00 CFU
- Log Population (exposure 150 seconds): 0
- Log reduction (exposure 150 seconds): 10.2
- M. terrae Population (exposure 150 seconds): 1.00E+00 CFU
- Log Population (exposure 180 seconds): 0
- Log reduction (exposure 180 seconds): 10.2
- M. terrae Population (exposure 180 seconds): 1.00E+00 CFU
- Log Population (exposure 210 seconds): 0
- Log reduction (exposure 210 seconds): 10.2
- M. terrae Population (exposure 210 seconds): 1.00E+00 CFU
- Log Population (exposure 240 seconds): 0
- Log reduction (exposure 240 seconds): 10.2
- M. terrae Population (exposure 240 seconds): 1.00E+00 CFU
- Log Population (exposure 270 seconds): 0
- Log reduction (exposure 270 seconds): 10.2
- M. terrae Population (exposure 270 seconds): 1.00E+00 CFU
- Log Population (exposure 300 seconds): 0
- Log reduction (exposure 300 seconds): 10.2
- M. terrae Population (exposure 300 seconds): 1.00E+00 CFU
- exposure to PAA for a 6 log reduction in M. terrae cells (PAA at 30° C., 21-days growth cells): about 75 seconds
